From Sander's compilation of Henry's law constants (doi:10.1007/s002160101077)

Experiment: Henry solubility constant Hcp at 298.15 K (mol/(m3 Pa))
Conditions: reference: Pfeifer et al. (2001)

Compared with COc1cc(Cl)c(Cl)c(Cl)c1Cl [1,2,3,4-tetrachloro-5-methoxybenzene], COc1c(Cl)cc(Cl)c(Cl)c1Cl [1,2,3,5-tetrachloro-4-methoxybenzene] is lower in “Henry solubility constant Hcp” value: 0.0065 for the first, 0.0031 for the second.

Compared with COc1ccc(Cl)c(Cl)c1Cl [1,2,3-trichloro-4-methoxybenzene], COc1ccc(Br)c(Cl)c1Cl [4-bromo-2,3-dichloro-1-methoxybenzene] is lower in “Henry solubility constant Hcp” value: 0.013 for the first, 0.011 for the second.

Going from COc1cc(Cl)c(Cl)c(Cl)c1 [1,2,3-trichloro-5-methoxybenzene] to COc1cc(Cl)c(Br)c(Cl)c1 [4-bromo-3,5-dichloro-1-methoxybenzene], the “Henry solubility constant Hcp” value rises from 0.0044 to 0.011.

First: COc1c(Cl)c(Cl)cc(Cl)c1Cl [1,2,4,5-tetrachloro-3-methoxybenzene]
Second: COc1c(Cl)c(Cl)cc(Br)c1Cl [3-bromo-2,5,6-trichloro-1-methoxybenzene]
The “Henry solubility constant Hcp” value of the first is lower: 0.0032 for the first, 0.01 for the second.

Going from COc1c(Cl)ccc(Cl)c1Cl [1,2,4-trichloro-3-methoxybenzene] to COc1c(Br)ccc(Cl)c1Cl [6-bromo-2,3-dichloro-1-methoxybenzene], the “Henry solubility constant Hcp” value rises from 0.0098 to 0.011.

COc1cc(Cl)c(Cl)cc1Cl [1,2,4-trichloro-5-methoxybenzene] and COc1cc(Br)c(Cl)cc1Cl [5-bromo-2,4-dichloro-1-methoxybenzene] are the same in “Henry solubility constant Hcp” value: 0.011 for the first, 0.011 for the second.

Going from COc1cccc(Cl)c1Cl [1,2-dichloro-3-methoxybenzene] to COc1c(Cl)cccc1Cl [1,3-dichloro-2-methoxybenzene], the “Henry solubility constant Hcp” value falls from 0.022 to 0.0088.

Compared with COc1ccc(Cl)c(Cl)c1 [1,2-dichloro-4-methoxybenzene], COc1cc(Cl)ccc1Cl [1,4-dichloro-2-methoxybenzene] is higher in “Henry solubility constant Hcp” value: 0.0092 for the first, 0.021 for the second.

Going from COc1c(Br)cc(Br)cc1Br [1,3,5-tribromo-2-methoxybenzene] to COc1c(Br)cc(Cl)cc1Br [2,6-dibromo-4-chloro-1-methoxybenzene], the “Henry solubility constant Hcp” value falls from 0.013 to 0.011.

Compared with COc1c(Cl)cc(Cl)cc1Cl [1,3,5-trichloro-2-methoxybenzene], COc1c(Cl)cc(Cl)cc1Br [2-bromo-4,6-dichloro-1-methoxybenzene] is higher in “Henry solubility constant Hcp” value: 0.0046 for the first, 0.012 for the second.

Compared with COc1c(Br)cccc1Br [1,3-dibromo-2-methoxybenzene], COc1c(Cl)cccc1Br [2-bromo-6-chloro-1-methoxybenzene] is lower in “Henry solubility constant Hcp” value: 0.037 for the first, 0.014 for the second.

First: COc1cc(Cl)cc(Cl)c1 [1,3-dichloro-5-methoxybenzene]
Second: COc1cccc(Cl)c1 [1-chloro-3-methoxybenzene]
The “Henry solubility constant Hcp” value of the first is lower: 0.0023 for the first, 0.045 for the second.

Going from COc1ccc(Br)cc1Br [1,5-dibromo-2-methoxybenzene] to COc1ccc(Cl)cc1Br [2-bromo-4-chloro-1-methoxybenzene], the “Henry solubility constant Hcp” value falls from 0.081 to 0.018.

Compared with COc1ccc(Cl)cc1Cl [1,5-dichloro-2-methoxybenzene], COc1ccc(Br)cc1Cl [4-bromo-2-chloro-1-methoxybenzene] is higher in “Henry solubility constant Hcp” value: 0.012 for the first, 0.013 for the second.

First: COc1ccccc1Br [1-bromo-2-methoxybenzene]
Second: COc1cccc(Br)c1 [1-bromo-3-methoxybenzene]
The “Henry solubility constant Hcp” value of the first is higher: 0.029 for the first, 0.0072 for the second.

Compared with COc1ccc(Br)cc1 [1-bromo-4-methoxybenzene], COc1c(Cl)cc(Br)cc1Cl [4-bromo-2,6-dichloro-1-methoxybenzene] is higher in “Henry solubility constant Hcp” value: 0.011 for the first, 0.012 for the second.

First: COc1c(Br)cc(Br)c(Cl)c1Br [2,4,6-tribromo-3-chloro-1-methoxybenzene]
Second: COc1c(Br)cc(Br)c(Cl)c1Cl [2,4-dibromo-5,6-dichloro-1-methoxybenzene]
The “Henry solubility constant Hcp” value of the first is lower: 0.0091 for the first, 0.0098 for the second.

Compared with COc1cc(Cl)c(Br)c(Cl)c1Br [2,4-dibromo-3,5-dichloro-1-methoxybenzene], COc1cc(Cl)cc(Cl)c1Br [2-bromo-3,5-dichloro-1-methoxybenzene] is higher in “Henry solubility constant Hcp” value: 0.0091 for the first, 0.011 for the second.

COc1c(Cl)cc(Cl)c(Br)c1Cl [3-bromo-2,4,6-trichloro-1-methoxybenzene] and COc1c(Cl)cc(Br)c(Cl)c1Cl [4-bromo-2,3,6-trichloro-1-methoxybenzene] are the same in “Henry solubility constant Hcp” value: 0.01 for the first, 0.01 for the second.

Compared with COc1c(Cl)c(Cl)c(Br)c(Cl)c1Cl [4-bromo-2,3,5,6-tetrachloro-1-methoxybenzene], COc1c(Cl)c(Cl)c(Cl)c(Cl)c1Cl [pentachloromethoxybenzene] is lower in “Henry solubility constant Hcp” value: 0.0092 for the first, 0.0021 for the second.

For COc1c(Br)c(Br)c(Br)c(Br)c1Br [pentabromomethoxybenzene], the “Henry solubility constant Hcp” value was 1.
